# Where two headings read alike, the source gives them in different places.
# Assays:
# [1] = tested on: S. aureus 3136; assay: MIC against S. aureus 3136; assay type: cell-based; settings: Table 2, S. aureus 3136, MSSA
# Excerpt: (§1) Without limitation, the present cephem compounds alone, or in combination with one or more β-lactamase inhibitors, may provide improved antibacterial efficacy, particularly in antibiotic-resistant bacterial strains. It is believed that the present compounds may be structurally different from known compounds and, as a result, may be more basic in nature. It is an advantage that the present compounds may extend the spectrum of effective bacterial compounds, particularly against previously-resistant bacteria (e.g. ESKAPE organisms), and/or gram negative bacteria, without significant side effects. In a preferred embodiment, the present cephem compound may comprise reference compound ceftazidime, which may be used alone, or in combination with one or more β-lactamase inhibitors, such as NXL-104. As shown, the foregoing composition was tested for minimum inhibitory concentration (MIC, μg/mL) against bacteria listed in Tables 2-3.
# [2] = tested on: S. aureus3137; assay: MIC against S. aureus3137; assay type: cell-based, S. aureus; settings: Table 2, S. aureus3137, MSSA
# Excerpt: as §1
# [3] = tested on: S. aureus 3147; assay: MIC against S. aureus 3147; assay type: cell-based; settings: Table 2, S. aureus 3147, MSSA
# Excerpt: as §1
# [4] = tested on: S. pneumoniae 2392; assay: MIC against S. pneumoniae 2392; assay type: cell-based; settings: Table 2, S. pneumoniae 2392, Pen R
# Excerpt: as §1
# [5] = tested on: S. pneumoniae 2403; assay: MIC against S. pneumoniae 2403; assay type: cell-based; settings: Table 2, S. pneumoniae 2403, Pen S
# Excerpt: as §1
# [6] = tested on: E. cloacae 2704; assay: MIC against E. cloacae 2704; assay type: cell-based; settings: Table 2, E. cloacae 2704, P99
# Excerpt: as §1
# [7] = tested on: E. cloacae 566; assay: MIC against E. cloacae 566; assay type: cell-based; settings: Table 2, E. cloacae 566, Caz R, IMP S
# Excerpt: as §1
# [8] = tested on: K. pneumoniae 4104; assay: MIC against K. pneumoniae 4104; assay type: cell-based; settings: K. pneumoniae 4104, KPC-3, TEM-1
# Description: (§2) As shown, the foregoing composition was tested for minimum inhibitory concentration (MIC, μg/mL) against bacteria listed in Tables 2-3.
# [9] = tested on: K. pneumoniae 4105; assay: MIC against K. pneumoniae 4105; assay type: cell-based; settings: K. pneumoniae 4105, KPC-3, TEM-1, SHV-11
# Description: as §2
# [10] = tested on: K. pneumoniae 4107; assay: MIC against K. pneumoniae 4107; assay type: cell-based; settings: K. pneumoniae 4107, KPC-2, TEM-1, SHV-11
# Description: as §2
# [11] = tested on: M. morganii 2409; assay: MIC against M. morganii 2409; assay type: cell-based; settings: Table 2, M. morganii 2409, High level cephase, β-Lactamase producing
# Excerpt: as §1
# [12] = tested on: E. coli 2671; assay: MIC against E. coli 2671; assay type: cell-based; settings: Table 2, E. coli 2671, VIM-19
# Excerpt: as §1
# [13] = tested on: E. coli 4080; assay: MIC against E. coli 4080; assay type: cell-based; settings: Table 2, E. coli 4080, TEM-10
# Excerpt: as §1
# [14] = tested on: E. coli 4098; assay: MIC against E. coli 4098; assay type: cell-based; settings: Table 2, E. coli 4098, CTX-M-15, TEM-1
# Excerpt: as §1
# [15] = tested on: E. coli 4102; assay: MIC against E. coli 4102; assay type: cell-based; settings: Table 2, E. coli 4102, CTX-M-14
# Excerpt: as §1
# [16] = tested on: K. baumanii 2579; assay: MIC against K. baumanii 2579; assay type: cell-based; settings: Table 2, K. baumanii 2579, OXA-25
# Excerpt: as §1
# [17] = tested on: K. baumanii 4091; assay: MIC against K. baumanii 4091; assay type: cell-based; settings: Table 2, K. baumanii 4091, OXA-23
# Excerpt: as §1
# [18] = tested on: E. cloacae 2689; assay: MIC against E. cloacae 2689; assay type: cell-based; settings: Table 3, E. cloacae 2689, KPC-2
# Description: as §2
# [19] = tested on: E. cloacae 2705; assay: MIC against E. cloacae 2705; assay type: cell-based; settings: Table 3, E. cloacae 2705, VIM-1, KPC-3type
# Description: as §2
# [20] = tested on: E. cloacae 2706; assay: MIC against E. cloacae 2706; assay type: cell-based; settings: Table 3, E. cloacae 2706, VIM-1, KPC-3
# Description: as §2
# [21] = tested on: E. cloacae 2709; assay: MIC against E. cloacae 2709; assay type: cell-based; settings: Table 3, E. cloacae 2709, KPC-3, VIM-1
# Description: as §2
# [22] = tested on: E. cloacae 2710; assay: MIC against E. cloacae 2710; assay type: cell-based; settings: Table 3, E. cloacae 2710, KPC-3, VIM-1
# Description: as §2
# [23] = tested on: E. coli 2666; assay: MIC against E. coli 2666; assay type: cell-based; settings: Table 3, E. coli 2666, KPC-2
# Description: as §2
# [24] = tested on: K. pneumoniae 4088; assay: MIC against K. pneumoniae 4088; assay type: cell-based; settings: Table 3, K. pneumoniae 4088, KPC-3
# Description: as §2
# [25] = Staphylococcus aureus, alone, read-out: MIC
# [26] = Streptococcus pneumoniae, alone, read-out: MIC
# [27] = Enterobacter cloacae, alone, read-out: MIC
# [28] = Table 2, in combination with NXL-104
# [29] = Table 3, in combination with NXL-104
# [30] = Escherichia coli, alone, read-out: MIC
smiles,measurement,setting,value
"CC(C)(O/N=C(\C(=O)N[C@@H]1C(=O)N2C(C(=O)[O-])=C(C[n+]3ccc4n3CCN4Cc3ccc(C(=N)N)cc3)CS[C@H]12)c1csc(N)n1)C(=O)O [Example 2, (6R,7R)-7-{[(2Z)-2-(2-Amino-1,3-thiazol-4-yl)-2-{[(2-carboxypropan-2-yl)oxy]imino}acetyl]amino}-3-{[1-(4-carbamimidoylbenzyl)-2,3-dihydro-1H-imidazo[1,2-b]pyrazol-5-ium-5-yl]methyl}-8-oxo-5-thia-1-azabicyclo[4.2.0]oct-2-ene-2-carboxylate]",MIC,[1]; [25],2 µg/mL
same,MIC,[1]; in combination with NXL-104,2.00 µg/mL
same,MIC,[2]; [25],32 µg/mL
same,MIC,[2]; in combination with NXL-104,32.00 µg/mL
same,MIC,[3]; [25],2 µg/mL
same,MIC,[3]; in combination with NXL-104,2.00 µg/mL
same,MIC,[4]; [26],8 µg/mL
same,MIC,[4]; in combination with NXL-104,8.00 µg/mL
same,MIC,[5]; [26],≤ 0.06 µg/mL
same,MIC,[5]; in combination with NXL-104,≤0.06 µg/mL
same,MIC,[6]; [27],4 µg/mL
same,MIC,[6]; in combination with NXL-104,1.00 µg/mL
same,MIC,[7]; [27],0.5 µg/mL
same,MIC,[7]; in combination with NXL-104,0.25 µg/mL
same,MIC,"[8]; Klebsiella pneumoniae, 4104, Table 2, alone, read-out: MIC",8 µg/mL
same,MIC,"[8]; Klebsiella pneumoniae, 4104, Table 3, alone, read-out: MIC",32 µg/mL
same,MIC,[8]; [28],2.00 µg/mL
same,MIC,[8]; [29],2 µg/mL
same,MIC,"[9]; Klebsiella pneumoniae, 4105, Table 2, alone, read-out: MIC",32 µg/mL
same,MIC,"[9]; Klebsiella pneumoniae, 4105, Table 3, alone, read-out: MIC",> 32 µg/mL
same,MIC,[9]; [28],2.00 µg/mL
same,MIC,[9]; [29],2 µg/mL
same,MIC,"[10]; Klebsiella pneumoniae, 4107, Table 2, alone, read-out: MIC",16 µg/mL
same,MIC,"[10]; Klebsiella pneumoniae, 4107, Table 3, alone, read-out: MIC",> 32 µg/mL
same,MIC,[10]; [28],4.00 µg/mL
same,MIC,[10]; [29],2 µg/mL
same,MIC,"[11]; Morganella morganii, alone, read-out: MIC",8 µg/mL
same,MIC,[11]; in combination with NXL-104,1.00 µg/mL
same,MIC,[12]; [30],4 µg/mL
same,MIC,[12]; in combination with NXL-104,4.00 µg/mL
same,MIC,[13]; [30],8 µg/mL
same,MIC,[13]; in combination with NXL-104,1.00 µg/mL
same,MIC,[14]; [30],1 µg/mL
same,MIC,[14]; in combination with NXL-104,0.25 µg/mL
same,MIC,[15]; [30],1 µg/mL
same,MIC,[15]; in combination with NXL-104,0.12 µg/mL
same,MIC,"[16]; alone, read-out: MIC",> 32 µg/mL
same,MIC,[16]; in combination with NXL-104,32.00 µg/mL
same,MIC,"[17]; alone, read-out: MIC",8 µg/mL
same,MIC,[17]; in combination with NXL-104,2.00 µg/mL
same,MIC,[18]; [27],8 µg/mL
same,MIC,[18]; in combination with NXL-104,0.5 µg/mL
same,MIC,[19]; [27],> 32 µg/mL
same,MIC,[19]; in combination with NXL-104,>32 µg/mL
same,MIC,[20]; [27],> 32 µg/mL
same,MIC,[20]; in combination with NXL-104,32 µg/mL
same,MIC,[21]; [27],16 µg/mL
same,MIC,[21]; in combination with NXL-104,4 µg/mL
same,MIC,[22]; [27],> 32 µg/mL
same,MIC,[22]; in combination with NXL-104,>32 µg/mL
same,MIC,[23]; [30],32 µg/mL
same,MIC,[23]; in combination with NXL-104,2 µg/mL
same,MIC,"[24]; Klebsiella pneumoniae, alone, read-out: MIC",> 32 µg/mL
same,MIC,[24]; in combination with NXL-104,4 µg/mL

# From patent USRE48097E1, “Cephem compounds, their production and use” (priority 2015, dated 2020)
